The values below come from article PMC3534858 (Bioorganic & medicinal chemistry letters, 2012).

The target of one data set is T1, mouse TP receptor (Mus musculus, UniProt P30987).
T1 sequence (P30987 1-341): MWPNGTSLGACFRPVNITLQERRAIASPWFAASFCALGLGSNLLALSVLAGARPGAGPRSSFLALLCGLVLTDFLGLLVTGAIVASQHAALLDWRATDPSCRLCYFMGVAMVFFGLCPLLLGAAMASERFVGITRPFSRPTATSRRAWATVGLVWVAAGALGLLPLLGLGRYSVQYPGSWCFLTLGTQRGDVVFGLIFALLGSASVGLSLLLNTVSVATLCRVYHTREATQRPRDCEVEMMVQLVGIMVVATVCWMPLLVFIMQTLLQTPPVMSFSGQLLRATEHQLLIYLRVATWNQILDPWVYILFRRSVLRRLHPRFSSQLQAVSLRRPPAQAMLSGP
Nature of the data set: Suppression of signaling through mouse TP receptor. Format: cell-based.

Data set [1] is described as follows: Intrinsic clearance by mouse liver microsomes. Format: in vitro ADME. The following applies: for CLHEP (predicted hepatic clearance): estimated from Clint, mouse hepatic blood flow QH 90 mL/min/kg.
In another data set the target is T2, mouse EP1 receptor (Mus musculus, UniProt P35375).
T2 sequence (P35375 1-405): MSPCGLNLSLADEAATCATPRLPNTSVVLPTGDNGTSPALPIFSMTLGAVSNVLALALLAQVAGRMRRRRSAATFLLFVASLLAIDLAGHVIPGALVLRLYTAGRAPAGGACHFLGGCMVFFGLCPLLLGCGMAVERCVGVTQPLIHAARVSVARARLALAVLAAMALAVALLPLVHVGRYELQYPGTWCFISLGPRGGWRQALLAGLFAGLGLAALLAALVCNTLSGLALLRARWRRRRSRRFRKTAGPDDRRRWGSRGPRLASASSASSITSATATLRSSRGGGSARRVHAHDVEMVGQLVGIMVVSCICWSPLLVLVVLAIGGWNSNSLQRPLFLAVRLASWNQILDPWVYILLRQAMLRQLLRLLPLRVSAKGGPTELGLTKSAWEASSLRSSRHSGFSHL
The conditions noted are these: for Schild regression slope m: representative experiment, six antagonist concentrations, agonist 17PTPGE2.

Data set [2] in a line: Metabolite identification in hepatic subcellular fractions. The conditions noted are these: NADPH-independent hydrolysis and NADPH-dependent oxidation. Format: in vitro ADME.
The conditions of data set [3]: several species; cited from earlier work.
The nature of data set [4]: In vivo pharmacokinetics of 7 in mice. The conditions noted are these: mouse, plasma, iv, 1 mg/kg.
Another data set relates to human EP1 receptor. The following applies: cited from earlier work.
In data set [5] the test system is human thromboxane (TP) receptor. The conditions noted are these: cited from earlier work.
The test system of data set [6] is phenylephrine vasoconstriction. Nature of the data set: Phenylephrine pressor response control in anesthetized mice. Format: in vivo, mouse. The conditions noted are these: phenylephrine 10 μg/kg; data not shown.

pIC50, pKd: −log10 of the molar value.

As usually defined, the pIC50 is the negative decadic logarithm of the IC50, by convention in mol/L. On to `O=C(NC1CC2CCC1C2)c1cccc(Cc2cc(Cl)ccc2OCc2ccc(Cl)cc2F)n1` (centres unmarked) [Compound 15], for which the negative logarithm of the IC50 (pIC50) against mouse TP receptor was < 6.00.
The same measure, in the same setting: next, `CCC(C)NC(=O)c1cccc(Cc2cc(Cl)ccc2OCc2ccc(Cl)cc2F)n1` (centres unmarked) [Compound 12]: < 6.00.
The same measure, in the same setting: the result for `CC(C)(C)NC(=O)c1cccc(Cc2cc(Cl)ccc2OCc2ccc(Cl)cc2F)n1` [Compound 13] reads < 6.00.
The term CLint scaled denotes a measure of how fast metabolising enzymes remove a compound, apart from limits set by blood flow. Higher therefore signals rapid turnover. In the case of `CCN(CC)C(=O)c1cccc(Cc2cc(Cl)ccc2OCc2ccc(Cl)cc2F)n1` [Compound 14], the negative-log IC50 (pIC50) against mouse TP receptor was < 6.00. Also, the “CLHEP (predicted hepatic clearance)” value in data set [1] is 88.9 mL/min/kg. The intrinsic metabolic clearance (CLint scaled) in data set [1] (mouse, liver microsomes) is 7160 mL/min/kg.
Turning to `CCCS(=O)(=O)NC(=O)c1cccc(Cc2cc(Cl)ccc2OCc2ccc(Cl)cc2F)n1` [Compound 20], on mouse TP receptor, the pIC50 was < 6.00.
In the case of `Cc1ccc(S(=O)(=O)NC(=O)c2cccc(Cc3cc(Cl)ccc3OCc3ccc(Cl)cc3F)n2)cc1` [Compound 19], at mouse TP receptor, the pIC50 is < 6.00. In addition, the “CLHEP (predicted hepatic clearance)” value in data set [1] is 88.4 mL/min/kg. This compound returned a CLint scaled in data set [1] (mouse, liver microsomes) of 5040 mL/min/kg.
As to `O=C(c1cccc(Cc2cc(Cl)ccc2OCc2ccc(Cl)cc2F)n1)N1CCCC1` [Compound 9], on mouse EP1 receptor (Schild analysis, mean ± SEM of at least two independent experiments in duplicate), the “mEP1 pKD” value came out at 4.80 ± 0.05. The negative logarithm of the IC50 (pIC50) against mouse TP receptor was < 6.00.
Regarding `O=C(NC1CCC1)c1cccc(Cc2cc(Cl)ccc2OCc2ccc(Cl)cc2F)n1` [Compound 10], the pIC50 on mouse TP receptor is < 6.00.
For `O=C(NCC1CC1)c1cccc(Cc2cc(Cl)ccc2OCc2ccc(Cl)cc2F)n1` [Compound 8], the negative logarithm of the IC50 (pIC50) on mouse TP receptor was < 6.00. Also, in data set [1], the “CLHEP (predicted hepatic clearance)” value was 89.3 mL/min/kg. In addition, in [1] (mouse, liver microsomes), the CLint scaled came to 11400 mL/min/kg.
Regarding `CC(C)CNC(=O)c1cccc(Cc2cc(Cl)ccc2OCc2ccc(Cl)cc2F)n1` [Compound 11], the pIC50 against mouse TP receptor is < 6.00. In addition, in data set [2], the “Biotransformation in metabolite identification studies” value is given as “extensive biotransformation”. Further, the “CLHEP (predicted hepatic clearance)” value in [1] is 89.2 mL/min/kg. The CLint scaled in data set [1] (mouse, liver microsomes) was determined as 9810 mL/min/kg.
In the case of `O=C(NS(=O)(=O)c1ccc(Cl)c(Cl)c1)c1cccc(Cc2cc(Cl)ccc2OCc2ccc(Cl)cc2F)n1` [Compound 21], on mouse TP receptor, the pIC50 was < 6.00. In addition, the “CLHEP (predicted hepatic clearance)” value in [1] is listed as 87.4 mL/min/kg. Also, the CLint scaled in data set [1] (mouse, liver microsomes) came out at 2990 mL/min/kg.
With `NC(=O)c1cccc(Cc2cc(Cl)ccc2OCc2ccc(Cl)cc2F)n1` [Compound 16], the pIC50 against mouse TP receptor is < 6.00.
The term pKd denotes the negative decadic logarithm of the Kd, by convention in mol/L. Higher therefore signals a low Kd. By half-life is commonly meant the time needed for the level to fall by half in the phase considered. High values mean slow decline, low ones rapid decline. With `O=C(O)c1cccc(Cc2cc(Cl)ccc2OCc2ccc(Cl)cc2F)n1` [Compound 7, reference compound], on mouse EP1 receptor, the pKd is 7.28 and the “Schild regression slope m” value was found to be 0.953 ± 0.085. Besides, on mouse EP1 receptor (Schild analysis), the “Functional antagonism of mEP1 in vitro” value is “functional antagonist of mEP1”. In addition, the “Stability in microsomes and S9 fractions” value in data set [3] was “stable”. Also, at mouse TP receptor, the negative logarithm of the IC50 (pIC50) was 6.04. In addition, the “Concentration suppressing mouse TP signaling relative to human receptor” value on mouse TP receptor (mouse TP vs human TP) is 100 fold. Moreover, the half-life in data set [4] is > 1 h. In the data set with human EP1 receptor, the “Affinity for the human EP1 receptor” value is “good affinity”. In addition, the “Interaction with the human thromboxane (TP) receptor” value in data set [5] was “high-affinity interaction”. For the same compound, the “CLHEP (predicted hepatic clearance)” value in [1] is recorded as 43.6 mL/min/kg. Further, the CLint scaled in [1] (mouse, liver microsomes) was 84.7 mL/min/kg.
Regarding `O=C(NS(=O)(=O)c1cc(Cl)ccc1Cl)c1cccc(Cc2cc(Cl)ccc2OCc2ccc(Cl)cc2F)n1` [Compound 18], the pIC50 against mouse TP receptor is < 6.00.
With `O=C(NS(=O)(=O)c1ccc(Cl)cc1)c1cccc(Cc2cc(Cl)ccc2OCc2ccc(Cl)cc2F)n1` [Compound 17], on mouse EP1 receptor, the pKd is 7.06 and the “Schild regression slope m” value came to 1.20 ± 0.12. Besides, on mouse TP receptor, the pIC50 was < 6.00. In [6], the “Effect of pretreatment on phenylephrine pressor activity” value was “unaffected”. The “Biotransformation in metabolite identification studies” value in [2] was “extensive biotransformation”. The “CLHEP (predicted hepatic clearance)” value in [1] was 86.6 mL/min/kg. Moreover, in [1] (mouse, liver microsomes), the CLint scaled turned out to be 2260 mL/min/kg and the “Clint (intrinsic clearance)” value is reported as “less stable in mouse hepatic microsomes than 7”.
